Assay results: PubChem BioAssay AID1552 (Sanford-Burnham Center for Chemical Genomics, 2009)
The source made the active and inactive calls. The rule behind the calls is not given here.

Target: Ubiquitin-conjugating enzyme E2 N (Homo sapiens) (UniProt P61088)
Test: UBE2N binders by NMR, biophysical, purified protein (AID 1552)
Settings: NMR binding to purified UBE2N

Chain of Ubiquitin-conjugating enzyme E2 N (Homo sapiens) (P61088 whole entry, looked up): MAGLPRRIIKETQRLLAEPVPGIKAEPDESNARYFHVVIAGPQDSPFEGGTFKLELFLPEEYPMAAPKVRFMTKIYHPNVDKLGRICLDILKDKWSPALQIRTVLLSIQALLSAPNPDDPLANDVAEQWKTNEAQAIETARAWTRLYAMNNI

Row | SMILES | Kd
1 | Cc1cc(C(=O)N2CCN(c3ncccn3)CC2)cs1 | > 4 mM (inactive)
2 | CCCCCCCCCCCC[C@H](C(=O)O)[C@@H](C)C(=O)O | > 4 mM (inactive)
3 | CCCC(=O)N1CCSCC1 | > 4 mM (inactive)
4 | CN(C)C(=O)Nc1ccc(F)cc1F | > 4 mM (inactive)
5 | Cc1nc2cc(Cl)ccc2n1CCO | > 4 mM (inactive)
6 | O=C1CNC(=O)N1c1cccc(Cl)c1 | > 4 mM (inactive)
7 | CC(=O)Nn1cc2c(=O)n(C)c(=O)n(C)c2c1 | > 4 mM (inactive)
8 | OC[C@H]1O[C@@H](Oc2ccc(O)cc2)[C@H](O)[C@@H](O)[C@@H]1O | > 4 mM (inactive)
9 | Cn1c(=O)[nH]c2nc[nH]c2c1=O | > 4 mM (inactive)
10 | C=CCNC(=O)c1ccc(Cl)cc1Cl | > 4 mM (inactive)
11 | CC(=O)OC[C@H]1O[C@@H](Oc2cc(OC(C)=O)c3c(=O)cc(-c4ccc(OC(C)=O)cc4)oc3c2)[C@H](OC(C)=O)[C@@H](OC(C)=O)[C@@H]1OC(C)=O | > 4 mM (inactive)
12 | COc1ccc(C(C)=O)c(OC)c1 | > 4 mM (inactive)
13 | OCc1ccccc1CN1CCOCC1 | > 4 mM (inactive)
14 | CC(=O)Oc1ccc(/C=C/c2cc(OC(C)=O)cc(OC(C)=O)c2)cc1 | > 4 mM (inactive)
15 | CCOC(=O)c1csc(C)n1 | > 4 mM (inactive)
16 | OC12C=CC(CC1)CC2 | > 4 mM (inactive)
17 | O=C1C=C(Nc2ccc(O)cc2)c2ccccc2C1=O | > 4 mM (inactive)
18 | CCSc1nc2ccccc2n1CC(N)=O | > 4 mM (inactive)
19 | CN1CCC(N(C)Cc2cccnc2)CC1 | > 4 mM (inactive)
20 | CC(=O)N1CCN(S(=O)(=O)c2ccccc2)CC1 | > 4 mM (inactive)

Row | SMILES | Kd
21 | CN1CCN(C(=O)C2CCCNC2)CC1 (stereo not drawn) | > 4 mM (inactive)
22 | C[C@H]1CCCC(=O)CCC/C=C/c2cc(O)cc(O)c2C(=O)O1 | > 4 mM (inactive)
23 | Cn1c(=O)c2ccccc2n(Cc2ccccc2F)c1=O | > 4 mM (inactive)
24 | CC(=O)Nc1ccc(C(=O)NC2CCSC2=O)cc1 (stereo not drawn) | > 4 mM (inactive)
25 | CC(C)=CCc1c(O)cc(C)oc1=O | > 4 mM (inactive)
26 | Cc1nc(N)sc1C(=O)N/N=C/c1ccncc1 | > 4 mM (inactive)
27 | O=C(O)c1cnn2ccccc12 | > 4 mM (inactive)
28 | O=C1CC(C(=O)O)c2ccccc21 (stereo not drawn) | > 4 mM (inactive)
29 | CC(C)=CCc1c2c(c3occ(-c4ccc(O)c(O)c4)c(=O)c3c1O)C=CC(C)(C)O2 | > 4 mM (inactive)
30 | NC(=O)c1ccccc1NC(=O)c1cccnc1 | > 4 mM (inactive)
31 | COc1ccccc1C(=O)Nc1ccccn1 | > 4 mM (inactive)
32 | Nc1ccc2ncsc2c1 | > 4 mM (inactive)
33 | Cn1cnnc1Sc1ncnc(N)c1[N+](=O)[O-] | > 4 mM (inactive)
34 | Cn1c(=O)c2c(ncn2C)n(C)c1=O | > 4 mM (inactive)
35 | Cc1ccccc1N1C(=O)CC(=O)NC1=O | > 4 mM (inactive)
36 | CC1CCN(C(=O)c2ccc3c(c2)OCCO3)CC1 | > 4 mM (inactive)
37 | OCc1ccccc1N1CCOCC1 | > 4 mM (inactive)
38 | CS(=O)(=O)N1CCN(C(=O)c2ccccc2)CC1 | > 4 mM (inactive)
39 | c1ccc(Cc2nn3c(-c4ccncc4)nnc3s2)cc1 | > 4 mM (inactive)
40 | Cc1ccc(S(=O)(=O)/N=C2\NC(=O)CS2)cc1 | > 4 mM (inactive)

Row | SMILES | Kd
41 | O=C(CSc1ncccn1)NCc1ccco1 | > 4 mM (inactive)
42 | Cc1ccc(-c2nnn(CC(=O)O)n2)cc1 | > 4 mM (inactive)
43 | CNC(=O)C1CCCN(S(C)(=O)=O)C1 (stereo not drawn) | > 4 mM (inactive)
44 | CCn1nnnc1Oc1ccc(Cl)cc1 | > 4 mM (inactive)
45 | OCc1sccc1-n1cccc1 | > 4 mM (inactive)
46 | Nc1ccc2c(c1)OCO2 | > 4 mM (inactive)
47 | C[C@@H]1C(=O)OC2[C@H](O)C34[C@@H]5OC(=O)[C@@]3(O[C@@H]3OC(=O)[C@H](O)[C@@]34[C@H](C(C)(C)C)[C@H]5O)[C@]21O (stereo partly drawn) | > 4 mM (inactive)
48 | Cn1cc(Cl)c(C(=O)Nc2ccncc2)n1 | > 4 mM (inactive)
49 | O=C(O)[C@H](O)[C@@](O)(Cc1ccc(O)cc1)C(=O)O | > 4 mM (inactive)
50 | COC(=O)[C@@H]1OC(=O)C2OC23[C@@]1(C)CCC1[C@]2(C)C(C[C@H](O)[C@]13C)C(C)(C)[C@H](OC(C)=O)C[C@@H]2OC(C)=O (stereo partly drawn) | > 4 mM (inactive)
51 | CN(C)N1C(=O)c2ccccc2C1=O | > 4 mM (inactive)
52 | Cc1nc2ccccc2c(=O)n1N1C(=O)CCCC1=O | > 4 mM (inactive)
53 | O=C(Cc1cccs1)Nc1nncs1 | > 4 mM (inactive)
54 | O=C(CCc1n[nH]c(=O)[nH]c1=O)NCc1ccccc1 | > 4 mM (inactive)
55 | CC1(C)C2CC(=O)[C@]3(C)C(CC[C@@]4(C)[C@H](c5ccoc5)OC(=O)C5OC543)[C@@]2(C)[C@@H](O)C[C@H]1O (stereo partly drawn) | > 4 mM (inactive)
56 | NCCc1ccc(S(N)(=O)=O)cc1 | > 4 mM (inactive)
57 | CNc1nc(N)c(C(=O)C(C)(C)C)s1 | > 4 mM (inactive)
58 | CC(=O)c1cccc(NC(=O)Nc2c(C)nn(C)c2C)c1 | > 4 mM (inactive)
